Changes are numbered by the printed parent chain. The source made the active and inactive calls. The rule behind the calls is not given here.
Tests used:
[1] = molecular target: T1, Androgen receptor (Homo sapiens) (UniProt P10275); test: Antagonist activity at AR in human LNCAP cells assessed as suppression of DHT-induced receptor transcriptional activity at 500 nM after 24 hrs by dual luciferase reporter gene assay; assay type: cell-based
T1 sequence (whole entry): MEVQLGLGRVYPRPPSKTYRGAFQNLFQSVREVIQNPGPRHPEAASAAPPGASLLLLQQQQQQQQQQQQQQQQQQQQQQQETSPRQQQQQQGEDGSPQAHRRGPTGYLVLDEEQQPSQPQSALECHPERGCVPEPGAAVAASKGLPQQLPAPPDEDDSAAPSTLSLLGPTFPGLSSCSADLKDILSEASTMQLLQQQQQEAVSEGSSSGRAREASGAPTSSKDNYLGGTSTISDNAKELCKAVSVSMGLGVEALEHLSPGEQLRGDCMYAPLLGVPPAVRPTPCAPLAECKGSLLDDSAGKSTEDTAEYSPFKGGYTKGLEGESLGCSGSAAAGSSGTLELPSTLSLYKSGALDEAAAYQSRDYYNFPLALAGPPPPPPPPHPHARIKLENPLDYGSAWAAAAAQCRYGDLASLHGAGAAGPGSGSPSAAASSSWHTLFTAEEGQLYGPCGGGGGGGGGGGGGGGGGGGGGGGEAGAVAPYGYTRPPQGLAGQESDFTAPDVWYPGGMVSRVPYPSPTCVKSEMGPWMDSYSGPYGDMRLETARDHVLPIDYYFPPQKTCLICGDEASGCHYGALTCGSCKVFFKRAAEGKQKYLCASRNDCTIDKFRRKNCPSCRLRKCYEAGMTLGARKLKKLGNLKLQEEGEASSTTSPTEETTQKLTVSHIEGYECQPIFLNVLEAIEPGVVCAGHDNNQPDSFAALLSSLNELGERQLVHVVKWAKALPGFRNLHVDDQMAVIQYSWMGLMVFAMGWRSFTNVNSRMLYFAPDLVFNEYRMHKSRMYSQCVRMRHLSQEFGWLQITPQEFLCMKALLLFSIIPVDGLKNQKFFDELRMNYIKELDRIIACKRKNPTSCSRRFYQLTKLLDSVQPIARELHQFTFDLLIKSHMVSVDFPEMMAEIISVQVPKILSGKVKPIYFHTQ

[2] = molecular target: T1, Androgen receptor (Homo sapiens); settings: LNCaP, at 5 µM
Description: Antagonist activity at AR in human LNCAP cells assessed as suppression of DHT-induced receptor transcriptional activity at 5 uM after 24 hrs by dual luciferase reporter gene assay

PC-3 [3] = test: Agonist activity at AR W741C/T877A double mutant (unknown origin) expressed in human PC3 cells assessed as receptor transactivation at 5 uM after 24 hrs by PSA-luciferase reporter gene assay; assay type: cell-based
[4] = molecular target: T2, Androgen receptor (Rattus norvegicus) (UniProt P15207); test: (§1) Displacement of fluormone-DHT green from His/GST-tagged rat AR ligand binding domain after 4 to 8 hrs by fluorescence polarization assay
T2 sequence (whole entry): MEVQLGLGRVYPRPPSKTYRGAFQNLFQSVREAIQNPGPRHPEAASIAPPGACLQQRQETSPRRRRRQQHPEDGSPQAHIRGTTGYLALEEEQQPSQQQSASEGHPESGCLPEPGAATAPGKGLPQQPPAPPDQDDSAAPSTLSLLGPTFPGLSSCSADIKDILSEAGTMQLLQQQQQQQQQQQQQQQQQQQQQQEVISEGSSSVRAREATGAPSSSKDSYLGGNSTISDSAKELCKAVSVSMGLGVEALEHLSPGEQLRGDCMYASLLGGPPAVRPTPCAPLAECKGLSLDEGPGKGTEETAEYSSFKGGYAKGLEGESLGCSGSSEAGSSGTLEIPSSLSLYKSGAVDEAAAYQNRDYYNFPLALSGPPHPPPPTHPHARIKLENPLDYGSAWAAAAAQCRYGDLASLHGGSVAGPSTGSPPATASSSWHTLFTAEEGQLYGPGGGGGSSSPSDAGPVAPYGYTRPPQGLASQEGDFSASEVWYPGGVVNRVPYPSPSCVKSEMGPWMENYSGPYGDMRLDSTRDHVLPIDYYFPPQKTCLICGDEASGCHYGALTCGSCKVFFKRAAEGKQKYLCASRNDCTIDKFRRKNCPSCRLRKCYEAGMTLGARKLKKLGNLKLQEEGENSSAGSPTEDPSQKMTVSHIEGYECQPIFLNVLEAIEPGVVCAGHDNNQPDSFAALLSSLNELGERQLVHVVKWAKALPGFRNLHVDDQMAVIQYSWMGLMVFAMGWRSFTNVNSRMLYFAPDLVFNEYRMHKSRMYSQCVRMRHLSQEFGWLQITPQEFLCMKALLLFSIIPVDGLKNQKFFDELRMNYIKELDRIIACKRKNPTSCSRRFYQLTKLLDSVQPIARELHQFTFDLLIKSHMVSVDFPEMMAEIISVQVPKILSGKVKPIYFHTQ

Androgen receptor [5] = molecular target: T3, Androgen receptor (Rattus norvegicus, UniProt P15207); test: as §1
T3 sequence (P15207 whole entry): T2 sequence (whole entry)

Androgen receptor [6] = molecular target: Androgen receptor (Homo sapiens, UniProt P10275, F877L); test: (§2) Antagonist activity at AR F876L mutant (unknown origin) expressed in human PC3 cells assessed as inhibition of DHT-induced receptor transactivation after 24 hrs by PSA-luciferase reporter gene assay; assay type: cell-based, PC-3
[7] = system: T4, Androgen receptor (Homo sapiens), P10275 [F877L]; test: as §2; assay type: cell-based; settings: PC-3
T4 sequence (whole entry): T1 sequence (whole entry) with F877L

[8] = molecular target: T1, Androgen receptor (Homo sapiens); test: Antagonist activity at AR in human LNCAP cells assessed as downregulation of PSA mRNA levels at 500 nM after 24 hrs in presence of DHT by RT-PCR analysis; assay type: cell-based
[9] = system: Androgen receptor (Homo sapiens), P10275 [T878A]; test: (§3) Antagonist activity at AR T877A mutant (unknown origin) transfected in human PC3 cells assessed as inhibition of DHT-induced receptor transcriptional activation after 24 hrs by PSA-luciferase reporter gene assay; assay type: cell-based; settings: PC-3
Androgen receptor [10] = molecular target: Androgen receptor (Homo sapiens, UniProt P10275, T878A); test: as §3; assay type: cell-based, PC-3
[11] = molecular target: T1, Androgen receptor (Homo sapiens); test: Antagonist activity at AR in human LNCAP cells assessed as downregulation of AR protein expression after 24 hrs by Western blot analysis; assay type: cell-based
Androgen receptor [12] = molecular target: T5, Androgen receptor (Homo sapiens, UniProt P10275); test: (§4) Antagonist activity at wild type AR in human PC3 cells assessed as suppression of DHT-induced receptor transcriptional activation after 24 hrs by PSA-luciferase reporter gene assay; assay type: cell-based, PC-3
T5 sequence (P10275 whole entry): T1 sequence (whole entry)

[13] = molecular target: T1, Androgen receptor (Homo sapiens); test: as §4; assay type: cell-based; settings: PC-3
[14] = molecular target: T1, Androgen receptor (Homo sapiens); test: Antagonist activity at AR in human LNCAP cells assessed as downregulation of PSA mRNA levels at 5 uM after 24 hrs in presence of DHT by RT-PCR analysis; assay type: cell-based
PC-3 [15] = test: Cytotoxicity against human PC3 cells assessed as cell growth inhibition after 72 hrs by MTT assay; assay type: functional, cell-based
[16] = system: T4, Androgen receptor (Homo sapiens), P10275 [F877L]; test: Antagonist activity at AR F876L mutant (unknown origin) transfected in human PC3 cells assessed as suppression of DHT-induced receptor transcriptional activity at 500 nM after 24 hrs by PSA-luciferase reporter gene assay; assay type: cell-based; settings: PC-3
cells = settings: Homo sapiens, PC-3, 24 h
Description: Antagonist activity at AR W741C/T877A double mutant (unknown origin) transfected in human PC3 cells assessed as inhibition of DHT-induced receptor transcriptional activation after 24 hrs by PSA-luciferase reporter gene assay

LNCaP = test: Cytotoxicity against human LNCAP cells assessed as cell growth inhibition after 72 hrs by MTT assay; assay type: functional, cell-based

Androgen receptor (Homo sapiens), P10275 [T878A], sequence (P10275 whole entry T878A): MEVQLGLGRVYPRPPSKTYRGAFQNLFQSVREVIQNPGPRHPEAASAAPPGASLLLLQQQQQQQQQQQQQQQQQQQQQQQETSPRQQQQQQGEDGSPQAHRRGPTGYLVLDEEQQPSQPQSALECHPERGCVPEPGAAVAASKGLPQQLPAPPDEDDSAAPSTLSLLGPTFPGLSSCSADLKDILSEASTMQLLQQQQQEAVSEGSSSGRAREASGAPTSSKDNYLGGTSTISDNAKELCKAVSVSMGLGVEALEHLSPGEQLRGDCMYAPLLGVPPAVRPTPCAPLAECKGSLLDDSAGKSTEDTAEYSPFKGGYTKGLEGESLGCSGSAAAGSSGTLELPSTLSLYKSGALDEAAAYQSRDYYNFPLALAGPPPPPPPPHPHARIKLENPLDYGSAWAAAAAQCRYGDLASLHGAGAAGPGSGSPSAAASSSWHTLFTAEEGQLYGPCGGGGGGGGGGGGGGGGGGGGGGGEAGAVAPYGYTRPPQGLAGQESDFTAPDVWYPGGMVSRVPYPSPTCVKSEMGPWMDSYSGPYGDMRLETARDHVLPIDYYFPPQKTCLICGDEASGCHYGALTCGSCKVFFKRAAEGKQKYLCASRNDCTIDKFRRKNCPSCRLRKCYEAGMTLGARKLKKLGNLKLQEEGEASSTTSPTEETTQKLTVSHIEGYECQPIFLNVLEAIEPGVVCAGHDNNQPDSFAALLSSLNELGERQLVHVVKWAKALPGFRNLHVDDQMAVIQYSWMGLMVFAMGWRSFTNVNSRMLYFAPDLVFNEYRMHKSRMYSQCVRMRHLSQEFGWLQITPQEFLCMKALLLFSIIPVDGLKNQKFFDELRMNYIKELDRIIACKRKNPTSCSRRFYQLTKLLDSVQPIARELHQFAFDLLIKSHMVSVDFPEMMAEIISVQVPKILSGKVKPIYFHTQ
Androgen receptor (Homo sapiens, UniProt P10275, T878A), sequence (P10275 whole entry T878A): as above
Androgen receptor (Homo sapiens, UniProt P10275, F877L), sequence (P10275 whole entry F877L): as the sequence (P10275 whole entry T878A) above, with F877L, A878T counted along it

What does the source list for `CC(C)[C@]12O[C@H]1[C@@H]1O[C@@]13[C@@]1(C)CCC4=C(COC4=O)[C@@H]1C[C@@H]1O[C@@]13C2=O`?
inhibition [1]: Active; inhibition [2]: Active

What does the source list for `CC(C)[C@]12O[C@H]1[C@@H]1O[C@]13[C@]1(O[C@H]1C[C@H]1C4=C(CC[C@@]13C)C(=O)OC4)[C@@H]2O`?
inhibition [1]: Active; inhibition [2]: Active

For `CC(O)(CS(=O)(=O)c1ccc(F)cc1)C(=O)Nc1ccc(C#N)c(C(F)(F)F)c1` (stereo not given), which Activity (PC-3 [3]) is on record?
Its Activity is “Active”.

Which inhibition [2] does the source give for `CC1(C)[C@@H](O)CC[C@]2(C)[C@H]3CC=C4[C@@H]5C[C@@]6(C)C[C@H](OC6=O)[C@]5(C)CC[C@@]4(C)[C@]3(C)CC[C@@H]12` here?
Its inhibition is “Active”.

With `CC1=C(O)C(=O)C=C2C1=CC=C1[C@@]2(C)CC[C@@]2(C)[C@@H]3C[C@](C)(C(=O)O)CC[C@]3(C)CC[C@]12C` as the molecule, how does the inhibition [2] read?
Its inhibition is “Active”.

For `C[C@@]1(C(=O)O)CC[C@]2(C)CC[C@]3(C)C4=CC(=O)c5c(cc(O)c(O)c5C=O)[C@]4(C)CC[C@@]3(C)[C@@H]2C1`, which inhibition [2] is on record?
Its inhibition is “Active”.

Which inhibition [4] does the source give for `CC(C)c1ccc2c(c1O)CC[C@H]1C3=C(CC[C@]21C)C(=O)OC3` [TRIPTOPHENOLIDE] here?
The inhibition was “Dose-dependent effect”.

And the IC50 (Androgen receptor [5])?
The IC50 was 467 nM.

What about the IC50 (Androgen receptor [6]) of the same molecule?
Its IC50 is 480 nM.

What about the inhibition [7] of the same molecule?
The inhibition was “Dose-dependent effect”.

What about the inhibition [8] of the same molecule?
Its inhibition is “Active”.

And the inhibition [9]?
The inhibition was “Dose-dependent effect”.

What about the IC50 (Androgen receptor [10]) of the same molecule?
The IC50 was 388 nM.

What about the inhibition [11] of the same molecule?
The inhibition was “Dose-dependent effect”.

What about the IC50 (Androgen receptor [12]) of the same molecule?
The IC50 was 260 nM.

What about the inhibition [13] of the same molecule?
Its inhibition is “Dose-dependent effect”.

What about the inhibition [1] of the same molecule?
Its inhibition is “Active”.

What about the inhibition [14] of the same molecule?
The inhibition was “Active”.

And the “growth inhibition (GI)” value (PC-3 [15])?
Its value is “Active”.

And the inhibition [16]?
Its inhibition is “Active”.

And the IC50 (cells)?
The IC50 was 437 nM.

And the “growth inhibition (GI)” value (LNCaP)?
Its value is “Dose-dependent effect”.

And the inhibition [2]?
Its inhibition is “Active”.

— ChEMBL document CHEMBL3862039 (ACS Med Chem Lett, 2016)
